Reference: patent US5428031A, “Methods of treating cardiac arrhythmia” (priority 1993, dated 1995)

Key:
Assay type in all cases: cell-based
[1] = test system: IK1 (inward rectifier K+ current); test: voltage clamp measurement of IK1 block in isolated guinea pig ventricular myocytes; conditions: 1 μM
Protocol: (§1) Guinea pig ventricular myocytes were isolated using a modification of the procedure described by Mitra R and Morad M., "A Uniform Enzymatic Method for Dissociation of Myocytes from Hearts and Stomachs of Nertilorates", Am. J. Physiol. 249:H1056-60 (1985). Excised hearts were perfused through the aorta (retrograde fashion) at a rate of 10 ml/min with oxygenated, warmed (37° C.) solutions described below. The heart was initially perfused for 7 minutes with a Tyrode's solution containing, in mM: 132 NaCl, 4 KCl, 1.2 MgCl2, 10 HEPES (formal name N-2-Hydroxyethylpiperazine-N-2-ethanesulfonic acid), 5 glucose, pH=7.2. The head was then perfused with the same nominally Ca^2+ -free solution containing 150 units/ml Type II collagenase (Worthington) and 0.5 units/ml Type XIV protease (Sigma) for 8 minutes. This perfusate was followed by a Tyrode's solution containing 0.2 mM CaCl2 (without enzymes) for 5 minutes. The digested ventricles were cut into small pieces and gently shaken until cells were visibly dispersed. […]
(§2) The suction microelectrode technique described by Giles, W. R. and Shibata, E. F., "Voltage clamp of bull-frog cardiac pacemaker cells: a quantitative, analysis of potassium currents". […]
(§3) To record K^+ currents, the cells were bathed in a Ca^2+ -free Tyrode's :solution containing […] nisoldipine. […] Data was analyzed as % block from control membrane currents. […]

ICa (Ca2+ current) = test: voltage clamp measurement of Ca2+ current in isolated guinea pig ventricular myocytes; conditions: 0.1 μM
Protocol: as §1, §2, §3

[2] = test system: guinea pig ventricular myocytes; test: current-clamp action potential duration (APD90) in isolated myocytes, 0.2 Hz; conditions: Cavia porcellus, Ventricular myocyte, 4 cells
Protocol: as §1, §2
To record action potentials, single cells were bathed in 1.8 mM Ca^2+ -Tyrode's solution. […] Data were analyzed as percent (%) change in action potential duration at 90% of repolarization (APD90). […]

[3] = test system: guinea pig ventricular myocytes; test: frequency-dependent effects on action potential duration (APD90) in isolated ventricular myocytes; conditions: for APD90 percent change at 0.01 µM / APD90 percent change at 0.03 µM / APD90 percent change at 0.1 µM: Cavia porcellus, Ventricular myocyte; for APD90 percent change at 0.01 µM: 10 nM; for APD90 percent change at 0.03 µM: 30 nM; for APD90 percent change at 0.1 µM: 100 nM; for APD90 % Change: Washout
Protocol: Guinea pig ventricular myocytes were isolated using a modification of the procedure described by Mitra R and Morad M., "A Uniform Enzymatic Method for Dissociation of Myocytes from Hearts and Stomachs of Nertilorates", Am. J. Physiol. 249:H1056-60 (1985). Excised hearts were perfused through the aorta (retrograde fashion) at a rate of 10 ml/min with oxygenated, warmed (37° C.) solutions described below. The heart was initially perfused for 7 minutes with a Tyrode's solution containing, in mM: 132 NaCl, 4 KCl, 1.2 MgCl2, 10 HEPES (formal name N-2-Hydroxyethylpiperazine-N-2-ethanesulfonic acid), 5 glucose, pH=7.2. The head was then perfused with the same nominally Ca^2+ -free solution containing 150 units/ml Type II collagenase (Worthington) and 0.5 units/ml Type XIV protease (Sigma) for 8 minutes. This perfusate was followed by a Tyrode's solution containing 0.2 mM CaCl2 (without enzymes) for 5 minutes. The digested ventricles were cut into small pieces and gently shaken until cells were visibly dispersed. The cells were stored at room temperature until use, within 8 hours after isolation.
Cell preparation: Same as described in section I.
Transmembrane action potential measurements were made using a technique similar to that described previously by Salata, J. J. and Wasserstrom, J. A. "Effects of quinicline on action potentials and ionic currents in isolated canine ventricular myocytes", Circ. Res. 62:324-337, 1988. The isolated ventricular myocytes were transferred to a glass bottom experimental perfusion chamber (12×25 mm) filled with a HEPES-Tyrode's solution containing in mM: 132 NaCl, 4 KCl, 1.8 CaCl2, 1.2 MgCl2, 10 HEPES, 5 glucose, pH=7.2 to a height of 2 mm. After the myocytes settled to the bottom of the chamber, they were continuously superfused with preheated HEPES-Tyrode's solution at a rate of 2.0 ml/min. The temperature was monitored and maintained at 36°±0.5° C. The experimental chamber was placed on the stage of an inverted microscope (Nikon Diaphot-TMD) to view the cells. Transmembrane potentials were recorded by means of conventional glass microelectrodes that were filled with 3M KCl and had tip resistances of 40-60 M.OMEGA.. The microelectrode was connected through a Ag--AgCl electrode to the headstage preamplifier (model HS-2, gain=1.0) of an operational amplifier with a high input impedance and variable input capacitance neutralization (Axoclamp -2A, Axon Instruments, Foster City, Calif.). The voltage drop across the microelectrode produced by current injection was compensated electronically with an active bridge circuit immediately-before impalement of a cell. The experimental bath was grounded through a 3M KCl agar bridge and a Ag--AgCl junction. The microelectrodes were positioned carefully at the cell surface using a hydraulic micromanipulator (Narishige Model MO-303, Greenvale, N.Y.). Penetration of the cell membrane was achieved by briefly (1-3 msec)increasing the input capacitance neutralization to cause oscillation of the amplifier. After establishing a stable microelectrode seal, the myocyte was lifted off the bottom of the chamber to allow complete superfusion of the cell. Action potentials were generated by passing current pulses of 1 msec in duration, and with an intensity of 1.2 times threshold at varying stimulus rates through the recording electrode. Cells were allowed to stabilize for 20 minutes before collection of data began. Voltage signals were digitized using an analog to digital converter (TL-1, DMA interface, Axon Instruments, Foster City, Calif.) at a sampling frequency of 2 kHz. Data acquisition and analysis were performed with pClamp software (Axon Instruments, Foster City, Calif.) and an AST 486 computer (Irvine, Calif.). Action potentials were stimulated at rates of either 60, 120, and 180 beats/min and were allowed to stabilized for 1 minute at each rate. […]

SMILES	effect on IK1 [1]	effect on ICa (ICa (Ca2+ current))	percent increase in APD90 at 5 µM [2]	APD90 percent change at 0.01 µM ([3]; 60 beats/min)	APD90 percent change at 0.01 µM ([3]; 120 beats/min)	APD90 percent change at 0.01 µM ([3]; 180 beats/min)	APD90 percent change at 0.03 µM ([3]; 60 beats/min)	APD90 percent change at 0.03 µM ([3]; 120 beats/min)	APD90 percent change at 0.03 µM ([3]; 180 beats/min)	APD90 percent change at 0.1 µM ([3]; 60 beats/min)	APD90 percent change at 0.1 µM ([3]; 120 beats/min)	APD90 percent change at 0.1 µM ([3]; 180 beats/min)	APD90 % Change ([3]; 60 beats/min)	APD90 % Change ([3]; 120 beats/min)	APD90 % Change ([3]; 180 beats/min)	reversibility of APD90 increase ([3]; after 20 min of washout)	frequency dependence of APD90 increase ([3]; at higher concentrations)	frequency dependence of APD90 increase ([3]; at lower concentrations (10 nM))	effect on action potential duration ([3]; isolated guinea pig myocytes)
Cc1cccc(NC(=O)N[C@@H]2N=C(c3ccccc3)c3ccccc3N(C)C2=O)c1 [Compound 4, (R)-N-(2,3-dihydro-1-methyl-2-oxo-5-phenyl-1H-1,4-benzodiazepin-3-yl)-N'-(3-methylphenyl)urea]	Little or no effect	Little or no effect	202%																
CN1C(=O)[C@H](NC(=O)/C=C/c2ccc(Cl)cc2Cl)N=C(c2ccccc2)c2ccccc21 [Example 26, E-(+)-N-[(3R)-2,3-Dihydro-1-methyl-2-oxo-5-phenyl-1H-1,4-benzo-diazepin-3-yl]-3-(2,4-dichlorophenyl)-2-propenamide]				9.4%	10.1%	12.4%	16%	14.8%	14.4%	24.7%	24.3%	22.9%	4.2%	5.3%	5.9%	nearly completely reversible	frequency-independent manner	forward frequency-dependent manner	concentration and rate-dependent increases in the action potential duration
